Source: ChEMBL document CHEMBL3885881, “DrugMatrix”

Species on record: Rattus norvegicus
Test: DrugMatrix - Regimen: Daily Repeat
Assay type: toxicity, organism-based, Sprague-Dawley
Set-up: regimen Daily Repeat, gender Male, age 6-8 weeks
Conditions: in vivo, po, route oral GAVAGE, vehicle 100 % WATER; for ABSOLUTE BASOPHIL / ABSOLUTE EOSINOPHIL / ABSOLUTE LYMPHOCYTE / ABSOLUTE MONOCYTE / ABSOLUTE SEGMENTED NEUTROPHIL / BASOPHIL / EOSINOPHIL / ERYTHROCYTE COUNT / HEMATOCRIT / HEMOGLOBIN / LEUKOCYTE COUNT / LYMPHOCYTE / MEAN CORPUSCULAR HEMOGLOBIN / MEAN CORPUSCULAR HEMOGLOBIN CONCENTRATION / MEAN CORPUSCULAR VOLUME / MONOCYTE / NEUTROPHIL / NUCLEATED RED BLOOD CELLS / PLATELET COUNT: tissue Blood; for ALANINE AMINOTRANSFERASE / ALBUMIN / ALKALINE PHOSPHATASE / ASPARTATE AMINOTRANSFERASE / BLOOD UREA NITROGEN / CARBON DIOXIDE / CHLORIDE / CHOLESTEROL / CREATINE PHOSPHOKINASE / CREATININE / GLUCOSE / LACTATE DEHYDROGENASE / LIPASE / PHOSPHORUS / POTASSIUM / SODIUM / TOTAL BILIRUBIN / TOTAL PROTEIN / URIC ACID: tissue Plasma
[1] = 0 mg/kg, 72 h, dose level Control, time 3 day
[2] = 0 mg/kg, 120 h, dose level Control, time 5 day
[3] = 2200 mg/kg, 72 h, dose level High, time 3 day
[4] = 2200 mg/kg, 120 h, dose level High, time 5 day

O.O.O.O.O.O.[Cl-].[Cl-].[Sr+2] [STRONTIUM CHLORIDE HEXAHYDRATE]
ABSOLUTE BASOPHIL [1]: 0 CELLS/uL
ABSOLUTE EOSINOPHIL [1]: 151.33 CELLS/uL
ABSOLUTE LYMPHOCYTE [1]: 10599.5 CELLS/uL
ABSOLUTE MONOCYTE [1]: 109.5 CELLS/uL
ABSOLUTE SEGMENTED NEUTROPHIL [1]: 1139.67 CELLS/uL
BASOPHIL [1]: 0%
EOSINOPHIL [1]: 0.83%
ERYTHROCYTE COUNT [1]: 5.54 x10E6/uL
HEMATOCRIT [1]: 35.35%
HEMOGLOBIN [1]: 13.22 G/DL
LEUKOCYTE COUNT [1]: 12 x10E3/uL
LYMPHOCYTE [1]: 89%
MEAN CORPUSCULAR HEMOGLOBIN [1]: 23.88 pg
MEAN CORPUSCULAR HEMOGLOBIN CONCENTRATION [1]: 37.4 G/DL
MEAN CORPUSCULAR VOLUME [1]: 63.85 fL
MONOCYTE [1]: 1%
NEUTROPHIL [1]: 9.17%
NUCLEATED RED BLOOD CELLS [1]: 0 /100WBC
PLATELET COUNT [1]: 1333.33 x10E3/uL
ALANINE AMINOTRANSFERASE [1]: 53.17 u/L
ALBUMIN [1]: 4.32 G/DL
ALKALINE PHOSPHATASE [1]: 404.33 u/L
ASPARTATE AMINOTRANSFERASE [1]: 83.17 u/L
BLOOD UREA NITROGEN [1]: 15.67 mg/dL
CARBON DIOXIDE [1]: 27.33 mmol/L
CHLORIDE [1]: 101.83 MEQ/L
CHOLESTEROL [1]: 68.67 mg/dL
CREATINE PHOSPHOKINASE [1]: 276.17 u/L
CREATININE [1]: 0.18 mg/dL
GLUCOSE [1]: 163.5 mg/dL
LACTATE DEHYDROGENASE [1]: 144.67 u/L
LIPASE [1]: 8.83 u/L
PHOSPHORUS [1]: 11.72 mg/dL
POTASSIUM [1]: 5.99 MEQ/L
SODIUM [1]: 143.57 MEQ/L
TOTAL BILIRUBIN [1]: 0.2 mg/dL
TOTAL PROTEIN [1]: 6.1 G/DL
URIC ACID [1]: 1.38 mg/dL
ABSOLUTE BASOPHIL [2]: 0 CELLS/uL
ABSOLUTE EOSINOPHIL [2]: 248.67 CELLS/uL
ABSOLUTE LYMPHOCYTE [2]: 12977.83 CELLS/uL
ABSOLUTE MONOCYTE [2]: 19.67 CELLS/uL
ABSOLUTE SEGMENTED NEUTROPHIL [2]: 1137.17 CELLS/uL
BASOPHIL [2]: 0%
EOSINOPHIL [2]: 1.67%
ERYTHROCYTE COUNT [2]: 5.82 x10E6/uL
HEMATOCRIT [2]: 36.35%
HEMOGLOBIN [2]: 13.58 G/DL
LEUKOCYTE COUNT [2]: 14.38 x10E3/uL
LYMPHOCYTE [2]: 90.5%
MEAN CORPUSCULAR HEMOGLOBIN [2]: 23.32 pg
MEAN CORPUSCULAR HEMOGLOBIN CONCENTRATION [2]: 37.42 G/DL
MEAN CORPUSCULAR VOLUME [2]: 62.42 fL
MONOCYTE [2]: 0.17%
NEUTROPHIL [2]: 7.67%
NUCLEATED RED BLOOD CELLS [2]: 0 /100WBC
PLATELET COUNT [2]: 1337.67 x10E3/uL
ALANINE AMINOTRANSFERASE [2]: 48.5 u/L
ALBUMIN [2]: 4.32 G/DL
ALKALINE PHOSPHATASE [2]: 354.33 u/L
ASPARTATE AMINOTRANSFERASE [2]: 80 u/L
BLOOD UREA NITROGEN [2]: 16 mg/dL
CARBON DIOXIDE [2]: 27.33 mmol/L
CHLORIDE [2]: 100.33 MEQ/L
CHOLESTEROL [2]: 68 mg/dL
CREATINE PHOSPHOKINASE [2]: 325.17 u/L
CREATININE [2]: 0.23 mg/dL
GLUCOSE [2]: 172 mg/dL
LACTATE DEHYDROGENASE [2]: 254.83 u/L
LIPASE [2]: 8.33 u/L
PHOSPHORUS [2]: 12.17 mg/dL
POTASSIUM [2]: 6.28 MEQ/L
SODIUM [2]: 143.57 MEQ/L
TOTAL BILIRUBIN [2]: 0.18 mg/dL
TOTAL PROTEIN [2]: 6.12 G/DL
URIC ACID [2]: 1.78 mg/dL
ABSOLUTE BASOPHIL [3]: 0 CELLS/uL
ABSOLUTE EOSINOPHIL [3]: 196.33 CELLS/uL
ABSOLUTE LYMPHOCYTE [3]: 12931 CELLS/uL
ABSOLUTE MONOCYTE [3]: 96.33 CELLS/uL
ABSOLUTE SEGMENTED NEUTROPHIL [3]: 1409.67 CELLS/uL
BASOPHIL [3]: 0%
EOSINOPHIL [3]: 1.33%
ERYTHROCYTE COUNT [3]: 5.23 x10E6/uL
HEMATOCRIT [3]: 33.33%
HEMOGLOBIN [3]: 12.6 G/DL
LEUKOCYTE COUNT [3]: 14.63 x10E3/uL
LYMPHOCYTE [3]: 88.33%
MEAN CORPUSCULAR HEMOGLOBIN [3]: 24.13 pg
MEAN CORPUSCULAR HEMOGLOBIN CONCENTRATION [3]: 37.8 G/DL
MEAN CORPUSCULAR VOLUME [3]: 63.8 fL
MONOCYTE [3]: 0.67%
NEUTROPHIL [3]: 9.67%
NUCLEATED RED BLOOD CELLS [3]: 0 /100WBC
PLATELET COUNT [3]: 1378.33 x10E3/uL
ALANINE AMINOTRANSFERASE [3]: 57.67 u/L
ALBUMIN [3]: 4.13 G/DL
ALKALINE PHOSPHATASE [3]: 643.67 u/L
ASPARTATE AMINOTRANSFERASE [3]: 69.33 u/L
BLOOD UREA NITROGEN [3]: 15.33 mg/dL
CARBON DIOXIDE [3]: 26.33 mmol/L
CHLORIDE [3]: 104.67 MEQ/L
CHOLESTEROL [3]: 80 mg/dL
CREATINE PHOSPHOKINASE [3]: 192.67 u/L
CREATININE [3]: 0.19 mg/dL
GLUCOSE [3]: 177 mg/dL
LACTATE DEHYDROGENASE [3]: 86.33 u/L
LIPASE [3]: 8.33 u/L
PHOSPHORUS [3]: 12.27 mg/dL
POTASSIUM [3]: 6.12 MEQ/L
SODIUM [3]: 145.67 MEQ/L
TOTAL BILIRUBIN [3]: 0.27 mg/dL
TOTAL PROTEIN [3]: 5.8 G/DL
URIC ACID [3]: 1.97 mg/dL
ABSOLUTE BASOPHIL [4]: 0 CELLS/uL
ABSOLUTE EOSINOPHIL [4]: 176 CELLS/uL
ABSOLUTE LYMPHOCYTE [4]: 13256.67 CELLS/uL
ABSOLUTE MONOCYTE [4]: 0 CELLS/uL
ABSOLUTE SEGMENTED NEUTROPHIL [4]: 1734 CELLS/uL
BASOPHIL [4]: 0%
EOSINOPHIL [4]: 1%
ERYTHROCYTE COUNT [4]: 5.42 x10E6/uL
HEMATOCRIT [4]: 34.13%
HEMOGLOBIN [4]: 13.03 G/DL
LEUKOCYTE COUNT [4]: 15.17 x10E3/uL
LYMPHOCYTE [4]: 87.33%
MEAN CORPUSCULAR HEMOGLOBIN [4]: 24.13 pg
MEAN CORPUSCULAR HEMOGLOBIN CONCENTRATION [4]: 38.23 G/DL
MEAN CORPUSCULAR VOLUME [4]: 63.13 fL
MONOCYTE [4]: 0%
NEUTROPHIL [4]: 11.67%
NUCLEATED RED BLOOD CELLS [4]: 0 /100WBC
PLATELET COUNT [4]: 1262.67 x10E3/uL
ALANINE AMINOTRANSFERASE [4]: 42.33 u/L
ALBUMIN [4]: 3.97 G/DL
ALKALINE PHOSPHATASE [4]: 573.67 u/L
ASPARTATE AMINOTRANSFERASE [4]: 58.67 u/L
BLOOD UREA NITROGEN [4]: 16.67 mg/dL
CARBON DIOXIDE [4]: 29 mmol/L
CHLORIDE [4]: 99 MEQ/L
CHOLESTEROL [4]: 78 mg/dL
CREATINE PHOSPHOKINASE [4]: 220 u/L
CREATININE [4]: 0.2 mg/dL
GLUCOSE [4]: 155.33 mg/dL
LACTATE DEHYDROGENASE [4]: 172.33 u/L
LIPASE [4]: 8.67 u/L
PHOSPHORUS [4]: 11.03 mg/dL
POTASSIUM [4]: 6.01 MEQ/L
SODIUM [4]: 142.9 MEQ/L
TOTAL BILIRUBIN [4]: 0.17 mg/dL
TOTAL PROTEIN [4]: 5.67 G/DL
URIC ACID [4]: 1.5 mg/dL
